Laboratory results from PMC6253949, “The Inhibitory Action of Kohamaic Acid A Derivatives on Mammalian DNA Polymerase β” (Molecules, 2008).

How the values were obtained:
[1] = test system: double-stranded DNA (dsDNA); experiment: Thermal transition (Tm) of double-stranded DNA; format: binding; conditions: compound 11 at 200 μM; data not shown
Procedure: The Tm of dsDNA with an excess amount of compound 11 (200 μM) was measured using a spectrophotometer equipped with a thermoelectric cell holder.

Human DNA polymerase ε = target: T1, Human DNA polymerase ε (Homo sapiens, UniProt Q07864); experiment: DNA polymerase assay, human pol ε; format: biochemical
T1 construct: Human pols δ and ε were purified by the nuclear fractionation of human peripheral blood cancer cells (Molt-4); endogenous in cells; host or cells: Molt-4
Description: (§1) Pol α was purified from calf thymus by immuno-affinity column chromatography as described by Tamai et al.. Recombinant rat pol β was purified from E. coli JMpβ5 as described by Date et al.. The human pol γ catalytic gene was cloned into pFastBac. Histidine-tagged enzyme was expressed using the BAC-TO-BAC HT Baculovirus Expression System according to the supplier's manual (LIFE TECHNOLOGIES, MD, USA) and purified using ProBoundresin (Invitrogen Japan, Tokyo, Japan). Human pols δ and ε were purified by the nuclear fractionation of human peripheral blood cancer cells (Molt-4) using the second subunit of pols δ and ε-conjugated affinity column chromatography, respectively. Recombinant human pols η and ι tagged with His6 at their C-terminal were expressed in SF9 insect cells using the baculovirus expression system, and were purified as described previously. A truncated form of pol κ (i.e., hDINB1DC) with 6 x His-tags attached at the C-terminal was overproduced using the BAC-to-BAC Baculovirus Expression System kit (GIBCO BRL, MD, USA) and purified as described previously. […]
(§2) For pols, poly(dA)/oligo(dT)12-18 (A/T = 2/1) and dTTP were used as the DNA template-primer and nucleotide (i.e., dNTP) substrate, respectively. […] Activity without the inhibitor was considered 100%, and the remaining activity at each concentration of the inhibitor was determined relative to this value. […]

Human DNA polymerase η = target: T2, Human DNA polymerase η (Homo sapiens, UniProt Q9Y253); experiment: DNA polymerase assay, human pol η; format: biochemical
T2 construct: His6 (C); made in house; host or cells: SF9 insect cells (baculovirus)
T2 sequence (Q9Y253 1-713): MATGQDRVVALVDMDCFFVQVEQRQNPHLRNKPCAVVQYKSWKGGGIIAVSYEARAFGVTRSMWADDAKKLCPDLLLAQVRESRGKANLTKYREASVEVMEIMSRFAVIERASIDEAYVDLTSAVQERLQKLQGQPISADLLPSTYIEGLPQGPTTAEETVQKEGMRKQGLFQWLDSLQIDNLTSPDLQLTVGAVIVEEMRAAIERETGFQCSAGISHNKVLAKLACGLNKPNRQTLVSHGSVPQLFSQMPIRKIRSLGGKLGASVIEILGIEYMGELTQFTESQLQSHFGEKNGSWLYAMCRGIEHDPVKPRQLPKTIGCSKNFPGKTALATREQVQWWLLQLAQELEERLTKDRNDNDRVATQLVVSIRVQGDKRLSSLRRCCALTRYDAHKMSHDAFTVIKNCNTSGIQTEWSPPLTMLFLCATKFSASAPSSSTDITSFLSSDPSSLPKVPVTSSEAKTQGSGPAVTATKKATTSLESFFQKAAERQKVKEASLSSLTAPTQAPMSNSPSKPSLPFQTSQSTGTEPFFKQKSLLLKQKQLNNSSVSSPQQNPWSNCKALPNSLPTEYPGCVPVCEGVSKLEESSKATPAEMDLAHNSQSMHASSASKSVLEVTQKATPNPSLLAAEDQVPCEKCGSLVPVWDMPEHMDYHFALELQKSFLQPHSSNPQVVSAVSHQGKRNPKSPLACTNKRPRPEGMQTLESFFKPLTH
Description: as §1, §2

[2] = target: T3, Bovine Deoxyribonuclease I (Bos taurus, UniProt P00639); experiment: Deoxyribonuclease I assay; format: biochemical
T3 construct: Bovine pancreas deoxyribonuclease I (DNase I) was obtained from Stratagene Cloning Systems; purchased Stratagene Cloning Systems (La Jolla, CA, USA); host or cells: bovine pancreas
Description: as §1
The primase activity of calf pol α, the activities of T7 RNA polymerase, T4 polynucleotide kinase and bovine DNase I were measured in standard assays according to the manufacturer's specifications as described by Tamiya-Koizumi et al., Nakayama et al., Soltis et al., and Lu and Sakaguchi, respectively.

Calf DNA polymerase α = Calf DNA polymerase α (Bos taurus, UniProt A0AAA9THK8); experiment: DNA polymerase assay, calf pol α; format: biochemical
Description: Pol α was purified from calf thymus by immuno-affinity column chromatography as described by Tamai et al.. Recombinant rat pol β was purified from E. coli JMpβ5 as described by Date et al.. The human pol γ catalytic gene was cloned into pFastBac. Histidine-tagged enzyme was expressed using the BAC-TO-BAC HT Baculovirus Expression System according to the supplier's manual (LIFE TECHNOLOGIES, MD, USA) and purified using ProBoundresin (Invitrogen Japan, Tokyo, Japan). Human pols δ and ε were purified by the nuclear fractionation of human peripheral blood cancer cells (Molt-4) using the second subunit of pols δ and ε-conjugated affinity column chromatography, respectively. Recombinant human pols η and ι tagged with His6 at their C-terminal were expressed in SF9 insect cells using the baculovirus expression system, and were purified as described previously. A truncated form of pol κ (i.e., hDINB1DC) with 6 x His-tags attached at the C-terminal was overproduced using the BAC-to-BAC Baculovirus Expression System kit (GIBCO BRL, MD, USA) and purified as described previously. Recombinant human His-pol λ was overexpressed and purified according to a method described previously. Fish pol δ was purified from the testis of cherry salmon (Oncorhynchus masou). Pol I (α-like) from a higher plant, cauliflower inflorescence, was purified according to the methods outlined by Sakaguchi et al.. The Klenow fragment of pol I from E. coli was purchased from Worthington Biochemical Corp. (Freehold, NJ, USA). Taq pol, T4 pol, T7 RNA polymerase and T4 polynucleotide kinase were purchased from Takara (Kyoto, Japan). Bovine pancreas deoxyribonuclease I (DNase I) was obtained from Stratagene Cloning Systems (La Jolla, CA, USA).
The reaction mixtures for pol α, pol β, fish pol δ, plant pol I (α-like) and prokaryotic pols were described previously, and those for pol γ, and pols δ and ε were as described by Umeda et al. and Ogawa et al., respectively. The reaction mixtures for pols η, ι and κ were the same as for pol α, and the reaction mixture for pol λ was the same as that for pol β.
For pols, poly(dA)/oligo(dT)12-18 (A/T = 2/1) and dTTP were used as the DNA template-primer and nucleotide (i.e., dNTP) substrate, respectively. KA-A analogues (i.e., compounds 1–12) were dissolved in distilled dimethyl sulfoxide (DMSO) at various concentrations and sonicated for 30 sec. Aliquots of 4 μL of sonicated samples were mixed with 16 μL of each enzyme (final amount 0.05 units) in 50 mM Tris-HCl (pH 7.5) containing 1 mM dithiothreitol, 50% glycerol and 0.1 mM EDTA, and kept at 0 °C for 10 min. […] Activity without the inhibitor was considered 100%, and the remaining activity at each concentration of the inhibitor was determined relative to this value. […]

[3] = target: Cherry salmon DNA polymerase δ (Oncorhynchus masou, UniProt Z9UCE0HTX2); experiment: DNA polymerase assay, fish pol δ; format: biochemical
mammalian pols = experiment: DNA polymerase assays, all mammalian pols tested; format: biochemical; conditions: all mammalian pols tested (α, β, γ, δ, ε, η, ι, κ, λ); read-out: range of IC50 values for mammalian pols
Description: as §1, §2

Calf DNA polymerase α, sequence (Q58D13 whole entry): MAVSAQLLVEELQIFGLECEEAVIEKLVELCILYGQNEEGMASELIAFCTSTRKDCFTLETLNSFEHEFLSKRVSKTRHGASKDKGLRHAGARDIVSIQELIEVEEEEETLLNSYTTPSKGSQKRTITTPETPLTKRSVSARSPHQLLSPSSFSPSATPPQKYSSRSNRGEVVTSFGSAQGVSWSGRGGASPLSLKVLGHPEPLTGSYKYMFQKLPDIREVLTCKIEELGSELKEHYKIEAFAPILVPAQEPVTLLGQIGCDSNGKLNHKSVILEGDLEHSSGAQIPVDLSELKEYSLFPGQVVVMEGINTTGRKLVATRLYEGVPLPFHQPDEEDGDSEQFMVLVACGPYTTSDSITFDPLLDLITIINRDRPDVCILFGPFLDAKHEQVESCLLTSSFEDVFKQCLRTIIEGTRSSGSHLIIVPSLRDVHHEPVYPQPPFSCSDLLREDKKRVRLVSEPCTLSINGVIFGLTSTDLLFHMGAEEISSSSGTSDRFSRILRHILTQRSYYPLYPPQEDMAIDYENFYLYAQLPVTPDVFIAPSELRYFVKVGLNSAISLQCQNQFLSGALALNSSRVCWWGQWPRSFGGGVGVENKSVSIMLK
Calf DNA polymerase α, sequence (A0AAA9THK8 entry or part of it): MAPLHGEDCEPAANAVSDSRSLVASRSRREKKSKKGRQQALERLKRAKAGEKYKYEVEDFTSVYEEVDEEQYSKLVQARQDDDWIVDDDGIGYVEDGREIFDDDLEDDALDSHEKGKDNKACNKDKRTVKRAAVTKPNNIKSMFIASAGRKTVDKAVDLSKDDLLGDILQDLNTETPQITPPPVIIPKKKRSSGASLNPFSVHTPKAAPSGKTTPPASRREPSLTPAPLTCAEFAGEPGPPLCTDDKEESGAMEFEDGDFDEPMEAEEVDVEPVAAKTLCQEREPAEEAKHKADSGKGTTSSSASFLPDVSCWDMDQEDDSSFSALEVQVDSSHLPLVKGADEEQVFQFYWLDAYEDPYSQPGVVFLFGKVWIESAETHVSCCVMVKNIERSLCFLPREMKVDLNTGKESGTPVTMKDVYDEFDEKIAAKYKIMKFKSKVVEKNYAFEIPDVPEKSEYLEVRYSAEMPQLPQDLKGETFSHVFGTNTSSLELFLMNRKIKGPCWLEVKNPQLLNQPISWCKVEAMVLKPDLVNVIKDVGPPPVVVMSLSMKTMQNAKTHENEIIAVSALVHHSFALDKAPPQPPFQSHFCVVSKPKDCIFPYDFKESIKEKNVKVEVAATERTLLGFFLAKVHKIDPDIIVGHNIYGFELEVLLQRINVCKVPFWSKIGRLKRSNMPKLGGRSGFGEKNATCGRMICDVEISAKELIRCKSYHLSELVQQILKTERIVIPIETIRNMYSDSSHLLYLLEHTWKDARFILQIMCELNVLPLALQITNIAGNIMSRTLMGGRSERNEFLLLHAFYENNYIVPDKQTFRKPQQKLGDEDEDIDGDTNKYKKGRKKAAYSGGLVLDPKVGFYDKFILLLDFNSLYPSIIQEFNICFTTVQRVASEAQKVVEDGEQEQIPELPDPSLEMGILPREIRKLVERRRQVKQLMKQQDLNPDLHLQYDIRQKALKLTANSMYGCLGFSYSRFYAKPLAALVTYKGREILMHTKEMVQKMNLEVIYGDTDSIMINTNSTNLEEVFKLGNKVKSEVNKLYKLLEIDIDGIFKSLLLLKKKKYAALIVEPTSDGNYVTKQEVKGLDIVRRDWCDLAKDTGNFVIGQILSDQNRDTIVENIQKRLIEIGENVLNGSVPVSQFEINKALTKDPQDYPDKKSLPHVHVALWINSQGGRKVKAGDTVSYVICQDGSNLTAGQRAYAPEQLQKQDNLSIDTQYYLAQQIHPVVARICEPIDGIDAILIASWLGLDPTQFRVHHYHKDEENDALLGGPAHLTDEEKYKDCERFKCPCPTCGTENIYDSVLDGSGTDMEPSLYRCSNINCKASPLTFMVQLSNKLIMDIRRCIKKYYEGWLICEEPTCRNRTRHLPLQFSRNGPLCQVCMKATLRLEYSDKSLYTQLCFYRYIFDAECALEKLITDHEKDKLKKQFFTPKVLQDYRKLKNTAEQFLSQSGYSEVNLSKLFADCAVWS
Calf DNA polymerase α, sequence (A0JNF4 entry or part of it, further chain): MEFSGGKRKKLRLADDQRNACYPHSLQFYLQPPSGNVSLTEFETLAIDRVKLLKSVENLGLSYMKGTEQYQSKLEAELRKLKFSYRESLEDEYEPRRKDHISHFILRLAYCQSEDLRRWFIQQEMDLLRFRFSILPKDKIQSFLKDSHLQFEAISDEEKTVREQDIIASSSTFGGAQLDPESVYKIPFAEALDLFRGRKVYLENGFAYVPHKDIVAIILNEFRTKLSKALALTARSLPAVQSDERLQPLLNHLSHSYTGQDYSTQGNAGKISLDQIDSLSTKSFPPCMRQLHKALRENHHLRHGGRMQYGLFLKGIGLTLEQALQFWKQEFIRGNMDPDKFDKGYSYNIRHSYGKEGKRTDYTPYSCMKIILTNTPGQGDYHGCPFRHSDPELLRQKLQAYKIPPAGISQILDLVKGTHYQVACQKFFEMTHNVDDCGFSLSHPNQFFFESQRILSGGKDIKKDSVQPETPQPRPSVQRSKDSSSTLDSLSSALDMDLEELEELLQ
Calf DNA polymerase α, sequence (A0A3Q1MF00 entry or part of it, further chain): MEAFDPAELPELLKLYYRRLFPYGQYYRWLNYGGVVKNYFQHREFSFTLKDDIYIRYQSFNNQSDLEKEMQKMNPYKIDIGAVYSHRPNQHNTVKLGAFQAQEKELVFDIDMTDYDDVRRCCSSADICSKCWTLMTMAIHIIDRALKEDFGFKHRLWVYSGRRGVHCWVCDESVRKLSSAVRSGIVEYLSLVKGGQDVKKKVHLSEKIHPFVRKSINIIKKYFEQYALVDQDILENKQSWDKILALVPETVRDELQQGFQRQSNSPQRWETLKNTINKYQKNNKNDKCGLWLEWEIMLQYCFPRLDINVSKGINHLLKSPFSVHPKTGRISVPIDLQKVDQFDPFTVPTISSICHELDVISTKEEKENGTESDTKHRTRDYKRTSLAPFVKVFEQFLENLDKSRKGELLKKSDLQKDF
T3 sequence (P00639 23-282): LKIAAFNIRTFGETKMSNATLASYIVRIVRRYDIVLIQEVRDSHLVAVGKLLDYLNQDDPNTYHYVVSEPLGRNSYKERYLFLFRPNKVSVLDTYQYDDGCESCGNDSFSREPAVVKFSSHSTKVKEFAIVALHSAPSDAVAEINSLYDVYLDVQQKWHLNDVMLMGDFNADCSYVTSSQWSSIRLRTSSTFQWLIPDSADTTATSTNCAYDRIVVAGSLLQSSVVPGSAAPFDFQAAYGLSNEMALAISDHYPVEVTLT
Cherry salmon DNA polymerase δ, sequence (Z9UCE0HTX2 1-856): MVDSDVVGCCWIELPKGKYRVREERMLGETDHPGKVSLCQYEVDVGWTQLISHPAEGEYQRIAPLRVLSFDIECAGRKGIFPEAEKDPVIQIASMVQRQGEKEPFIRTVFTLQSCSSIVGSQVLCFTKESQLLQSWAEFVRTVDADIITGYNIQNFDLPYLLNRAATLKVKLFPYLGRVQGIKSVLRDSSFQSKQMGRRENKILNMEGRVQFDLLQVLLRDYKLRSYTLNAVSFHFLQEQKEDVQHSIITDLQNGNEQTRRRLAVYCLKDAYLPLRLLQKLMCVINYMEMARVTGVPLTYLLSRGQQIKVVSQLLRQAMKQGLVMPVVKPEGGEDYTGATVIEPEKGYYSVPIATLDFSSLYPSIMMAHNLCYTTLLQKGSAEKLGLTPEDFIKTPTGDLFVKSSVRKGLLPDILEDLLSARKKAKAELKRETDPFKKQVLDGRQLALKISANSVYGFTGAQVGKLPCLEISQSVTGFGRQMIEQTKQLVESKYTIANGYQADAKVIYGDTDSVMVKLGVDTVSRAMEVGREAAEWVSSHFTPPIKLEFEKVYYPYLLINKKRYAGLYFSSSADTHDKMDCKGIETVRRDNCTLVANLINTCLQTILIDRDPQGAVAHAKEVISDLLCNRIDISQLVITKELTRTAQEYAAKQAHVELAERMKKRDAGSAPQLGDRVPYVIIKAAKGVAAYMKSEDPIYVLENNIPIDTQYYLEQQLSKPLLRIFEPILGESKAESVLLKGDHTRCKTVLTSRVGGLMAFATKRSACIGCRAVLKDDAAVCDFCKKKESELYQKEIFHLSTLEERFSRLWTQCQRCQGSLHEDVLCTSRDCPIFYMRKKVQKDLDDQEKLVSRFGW

## CC1=CC[C@H]2C(C)(C)CCC[C@]2(C)[C@H]1CCCCCCCCCCCCCCCCC(=O)O (relative stereo) [compound 11, (1S*,4aS*,8aS*)-17-(1,4,4a,5,6,7,8,8a-octahydro-2,5,5,8a-tetramethylnaphthalen-1-yl)heptadecanoic acid]
[1]
  Thermal transition of Tm of dsDNA: no thermal transition of Tm was observed
Human DNA polymerase ε
  IC50: 3.22 ± 0.16 µM
Human DNA polymerase η
  IC50: 7.45 ± 0.37 µM
[2]
  IC50: > 200 µM
Calf DNA polymerase α; 10 and 100 μM of compound (Figure 2A)
  Inhibitory effect on pol α compared with KA-A: strongest inhibitory effect
Calf DNA polymerase α; poly(dA)/oligo(dT)12-18 and dTTP, 0.05 units enzyme, read-out: IC50 values
  IC50: 4.21 ± 0.21 µM
[3]
  IC50: 4.3 ± 0.22 µM
Mammalian pols
  IC50: 3.22 to 8.76 µM
